Legend:
[1] = system: pulmonary arterioles of rats with monocrotaline induced pulmonary arterial hypertension; assay: Monocrotaline rat PAH model: lung histopathology (smooth muscle hypertrophy, muscularization of pulmonary arterioles); assay type: in vivo, Sprague-Dawley rats; details: for mean hypertrophy score (smooth muscle hypertrophy of small arterioles): score 0 (normal) to 4 (marked), monocrotaline+vehicle 2.7
Experimental: (§1) Male Sprague-Dawley rats in groups 2 to 5 were administered […] of body weight of Monocrotaline in DMSO subcutaneously to induce PAH on day 1. The DMSO group (Group 1) received a single dose of DMSO subcutaneously on day 1. The vehicle group received 5 ml of vehicle every morning. The cinitapride as well as sildenafil groups were orally administered cinitapride (0.3 or 0.9 mg/kg total daily dose, divided into a BID regimen given every day for 28 days starting on Day 1), or sildenafil (30 mg/kg, administered twice daily). On the twenty-eighth day after monocrotaline dosing, the rats were anesthetized with ketamine/xylazine for terminal monitoring of pulmonary and systemic arterial pressures along with heart rate.
Later the animals were sacrificed and histopathological evaluation was performed to assess pulmonary arterioles for smooth muscle hypertrophy & muscularization of pulmonary arterioles.
The elastin/eosin stained lung section were examined microscopically and histopathological findings were recorded as smooth muscle hypertrophy of small arterioles and muscularization of pulmonary arterioles. The finding were recorded as 0 (normal), 1 (minimal), 2 (mild), 3 (moderate) or 4 (marked). Scoring smooth muscle hypertrophy in small pulmonary arterioles was based on the thickness of muscular wall & extent of finding (apparent no. of arterioles affected).

[2] = system: rats with monocrotaline induced pulmonary arterial hypertension; assay: Monocrotaline rat PAH efficacy model: terminal hemodynamics, heart/lung weights; details: for Body Weight / HR / HW/BW / Heart Weight / LV Weight / Lung Weight / MAP / Mean PAP / RV Weight / RV/BW / RV/LV + S (Fulton's Index) / Systolic PAP: Day 28 after MCT, Mean ± SEM
Experimental: The studies were conducted for hemodynamic evaluation of cinitpride in anesthetized sprague dawley rats treated with monocrotaline (“MCT”) to induce pulmonary arterial hypertension. Sildenafil was used as an internal control to compare the effects of cinitapride.
The effects of cinitapride were evaluated in rats with monocrotaline induced pulmonary arterial hypertension using sildenafil as standard care treatment. Male Sprague-Dawley rats were orally administered vehicle cinitapride (0.3 or 0.9 mg/kg total daily dose, divided into a BID regimen given every day for 28 days starting on Day 1), or sildenafil (30 mg/kg, administered twice daily) (n=10 in each group). Rats received a single injection of monocrotaline (60 mg/kg, s.c.) on Study Day 1. On the twenty-eighth day following monocrotaline dosing, the rats were anesthetized with ketamine/xylazine for terminal monitoring of pulmonary and systemic arterial pressures along with heart rate.
Vehicle (0.5% Methylcellulose+0.2% Tween 80 in deionized water, Cinitapride (0.3 or 0.9 mg/kg total daily dose; Sildenafil (30 mg/kg, administered twice daily)
as §1

[3] = Cinitapride 0.3 mg/kg per day bid, oral
[4] = Cinitapride 0.9 mg/kg per day bid, oral
[5] = Sildenafil 60 mg/kg per day bid, oral

CCOc1cc(N)c([N+](=O)[O-])cc1C(=O)NC1CCN(CC2CC=CCC2)CC1 (centres unmarked) [Cinitapride]
completely muscularized arterioles, group mean percentage ([1]; 0.45 mg/kg cinitapride twice daily following MCT, vehicle following MCT 52.1%): 38.2% | vascular smooth muscle hypertrophy compared to control group (FIG. 4) ([1]; cinitapride 0.15 mg/kg after monocrotaline induction): mild vascular smooth muscle hypertrophy | presence of smooth muscle hypertrophy in small arterioles ([1]; cinitapride 0.15 mg/kg and 0.45 mg/kg twice daily following Monocrotaline): substantially decreased | vascular smooth muscle hypertrophy compared to control group (FIG. 5) ([1]; cinitapride 0.45 mg/kg after monocrotaline induction): mild vascular smooth muscle hypertrophy | mean hypertrophy score (smooth muscle hypertrophy of small arterioles) ([1]; monocrotaline+cinitapride 0.15 bid): 1.9 | mean hypertrophy score (smooth muscle hypertrophy of small arterioles) ([1]; monocrotaline+cinitapride 0.45 bid): 2.1 | systolic pulmonary arterial pressure compared to the vehicle group ([2]; 0.9 mg/kg/day cinitapride, after 28 days): reduction in systolic pulmonary arterial pressure | Body Weight [2, 3]: 0.32 ± 0.02 kg | HR [2, 3]: 299 ± 17 bpm | HW/BW [2, 3]: 3.71 ± 0.20 | Heart Weight [2, 3]: 1.17 ± 0.05 g | LV Weight [2, 3]: 0.68 ± 0.04 g | Lung Weight [2, 3]: 2.36 ± 0.16 g | MAP [2, 3]: 77 ± 8 mmHg | Mean PAP [2, 3]: 43 ± 5 mmHg | RV Weight [2, 3]: 0.35 ± 0.02 g | RV/BW [2, 3]: 1.14 ± 0.10 | RV/LV + S (Fulton's Index) [2, 3]: 0.53 ± 0.04 | Systolic PAP [2, 3]: 55 ± 8 mmHg | Body Weight [2, 4]: 0.32 ± 0.02 kg | HR [2, 4]: 295 ± 9 bpm | HW/BW [2, 4]: 3.52 ± 0.16 | Heart Weight [2, 4]: 1.10 ± 0.05 g | LV Weight [2, 4]: 0.70 ± 0.03 g | Lung Weight [2, 4]: 2.30 ± 0.20 g | MAP [2, 4]: 76 ± 2 mmHg | Mean PAP [2, 4]: 37 ± 3 mmHg | RV Weight [2, 4]: 0.31 ± 0.03 g | RV/BW [2, 4]: 1.01 ± 0.11 | RV/LV + S (Fulton's Index) [2, 4]: 0.45 ± 0.04 | Systolic PAP [2, 4]: 45 ± 4 mmHg | effect on right ventricular hypertrophy (RV/LV+S, Fulton's Index) compared to vehicle ([2]; cinitapride 0.3 mg/kg/day): −10% | effect on right ventricular hypertrophy (RV/LV+S, Fulton's Index) compared to vehicle ([2]; cinitapride 0.9 mg/kg/day): −25% | efficacy at reducing monocrotaline-induced pulmonary hypertension (overall mortality, pulmonary hemodynamics, right ventricular hypertrophy) versus sildenafil ([2]; cinitapride 0.9 mg/kg/day given BID, oral): superior to the positive control | decrease in hypertrophy, RV (wt) corrected by body weight ([2]; cinitapride highest dose, p<0.05): 33% | activity in controlling or reducing PAH relative to Sildenafil ([2]; rat, in vivo): comparable | heart rate or mean arterial pressure compared to vehicle ([2]; rats treated with cinitapride): No substantive differences

CCCc1nn(C)c2c(=O)[nH]c(-c3cc(S(=O)(=O)N4CCN(C)CC4)ccc3OCC)nc12 [Sildenafil]
Body Weight [2, 5]: 0.32 ± 0.01 kg | HR [2, 5]: 278 ± 21 bpm | HW/BW [2, 5]: 3.89 ± 0.17 | Heart Weight [2, 5]: 1.24 ± 0.02 g | LV Weight [2, 5]: 0.74 ± 0.02 g | Lung Weight [2, 5]: 2.36 ± 0.13 g | MAP [2, 5]: 69 ± 5 mmHg | Mean PAP [2, 5]: 38 ± 6 mmHg | RV Weight [2, 5]: 0.38 ± 0.02 g | RV/BW [2, 5]: 1.19 ± 0.09 | RV/LV + S (Fulton's Index) [2, 5]: 0.51 ± 0.03 | Systolic PAP [2, 5]: 46 ± 7 mmHg | hypertrophic index (RV wt corrected by body weight) ([2]; sildenafil): decrease

Source: patent publication US10058545B2, “Method of treating pulmonary arterial hypertension” (Cipla Limited, priority 2016, dated 2018)
